Data as given in patent publication US11505543B2, “4-oxo-3,4-dihydroquinazoline compounds as inhibitors of human immunodeficiency virus replication” (VIIV HEALTHCARE UK (NO.5) LIMITED, priority 2018, dated 2022).

Columns and labels:
[1] = Compound cytotoxicity, XTT-based colorimetric assay; format: cell-based; settings: human, uninfected MT2 cells, day 4, XTT
Procedure, shortened: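 Run under the antiviral-assay protocol but without virus. Viability was read on day 4 and CC50 values were derived from the readout.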

[2] = test system: recombinant NL4-3 virus (nef section replaced with Renilla luciferase gene) in MT-2 cells; assay: HIV cell culture assay (antiviral activity, luciferase readout); format: cell-based; settings: Renilla, NL43, MT-2 cells infected for 4-5 days with recombinant NL4-3 Renilla luciferase virus, serial dilutions of compound
Procedure, shortened: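 EC50 was derived by median-effect curve fitting of luciferase activity. The signal comes from MT-2 cells infected for 4–5 days with 293T-produced NL4-3 reporter virus, nef partly replaced by Renilla luciferase, in the presence of serially diluted compound.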

| SMILES | CC50 at 4 day [1] | EC50 [2] |
| --- | --- | --- |
| Cn1nc(NS(C)(=O)=O)c2c(Cl)ccc(-n3c([C@H](Cc4cc(F)cc(F)c4)NC(=O)Cn4nc(C(F)F)c5c4C(F)(F)[C@@H]4C[C@H]54)nc4cc(-c5cc(F)ccc5F)ccc4c3=O)c21 (atropisomer, axis not shown; (aR)) [Example 99, N-((S)-1-(3-(4-chloro-1-methyl-3-(methylsulfonamido)-1H-indazol-7-yl)-7-(2,5-difluorophenyl)-4-oxo-3,4-dihydroquinazolin-2-yl)-2-(3,5-difluorophenyl)ethyl)-2-((3bS,4aR)-3-(difluoromethyl)-5,5-difluoro-3b,4,4a,5-tetrahydro-1H-cyclopropa[3,4]cyclopenta[1,2-c]pyrazol-1-yl)acetamide] | > 1000 nM | 0.68 nM |
| Cn1nc(NS(C)(=O)=O)c2c(Cl)ccc(-n3c([C@H](Cc4cc(F)cc(F)c4)NC(=O)Cn4nc(C(F)F)c5c4C(F)(F)[C@@H]4C[C@H]54)nc4cc(-c5ccc(C(=O)O)cc5)ccc4c3=O)c21 (atropisomer, axis not shown; (aR)) [Example 100, 4-(3-(4-chloro-1-methyl-3-(methylsulfonamido)-1H-indazol-7-yl)-2-((S)-1-(2-((3bS,4aR)-3-(difluoromethyl)-5,5-difluoro-3b,4,4a,5-tetrahydro-1H-cyclopropa[3,4]cyclopenta[1,2-c]pyrazol-1-yl)acetamido)-2-(3,5-difluorophenyl)ethyl)-4-oxo-3,4-dihydroquinazolin-7-yl)benzoic acid] | > 1000 nM | 6.5 nM |
| Cn1nc(NS(C)(=O)=O)c2c(Cl)ccc(-n3c([C@H](Cc4cc(F)cc(F)c4)NC(=O)Cn4nc(C(F)F)c5c4C(F)(F)[C@@H]4C[C@H]54)nc4cc(-c5ccc(-c6ccccc6)cc5)ccc4c3=O)c21 (atropisomer, axis not shown; (aR)) [Example 101, N-((S)-1-(7-([1,1′-biphenyl]-4-yl)-3-(4-chloro-1-methyl-3-(methylsulfonamido)-1H-indazol-7-yl)-4-oxo-3,4-dihydroquinazolin-2-yl)-2-(3,5-difluorophenyl)ethyl)-2-((3bS,4aR)-3-(difluoromethyl)-5,5-difluoro-3b,4,4a,5-tetrahydro-1H-cyclopropa[3,4]cyclopenta[1,2-c]pyrazol-1-yl)acetamide] | > 1000 nM | 62 nM |
| Cn1nc(NS(C)(=O)=O)c2c(Cl)ccc(-n3c([C@H](Cc4cc(F)cc(F)c4)NC(=O)Cn4nc(C(F)F)c5c4C(F)(F)[C@@H]4C[C@H]54)nc4cc(-c5cc(F)cc(F)c5)ccc4c3=O)c21 (atropisomer, axis not shown; (aR)) [Example 103, N-((S)-1-(3-(4-chloro-1-methyl-3-(methylsulfonamido)-1H-indazol-7-yl)-7-(3,5-difluorophenyl)-4-oxo-3,4-dihydroquinazolin-2-yl)-2-(3,5-difluorophenyl)ethyl)-2-((3bS,4aR)-3-(difluoromethyl)-5,5-difluoro-3b,4,4a,5-tetrahydro-1H-cyclopropa[3,4]cyclopenta[1,2-c]pyrazol-1-yl)acetamide] | > 1000 nM | 0.88 nM |
| Cn1nc(NS(C)(=O)=O)c2c(Cl)ccc(-n3c([C@H](Cc4cc(F)cc(F)c4)NC(=O)Cn4nc(C(F)F)c5c4C(F)(F)[C@@H]4C[C@H]54)nc4cc(-c5c(Cl)cccc5Cl)ccc4c3=O)c21 (atropisomer, axis not shown; (aR)) [Example 104, N-((S)-1-(3-(4-chloro-1-methyl-3-(methylsulfonamido)-1H-indazol-7-yl)-7-(2,6-dichlorophenyl)-4-oxo-3,4-dihydroquinazolin-2-yl)-2-(3,5-difluorophenyl)ethyl)-2-((3bS,4aR)-3-(difluoromethyl)-5,5-difluoro-3b,4,4a,5-tetrahydro-1H-cyclopropa[3,4]cyclopenta[1,2-c]pyrazol-1-yl)acetamide] | > 1000 nM | 0.68 nM |
| Cn1nc(NS(C)(=O)=O)c2c(Cl)ccc(-n3c([C@H](Cc4cc(F)cc(F)c4)NC(=O)Cn4nc(C(F)F)c5c4C(F)(F)[C@@H]4C[C@H]54)nc4cc(-c5ccc(F)cc5CO)ccc4c3=O)c21 (atropisomer, axis not shown; (aR)) [Example 105, N-((S)-1-(3-(4-chloro-1-methyl-3-(methylsulfonamido)-1H-indazol-7-yl)-7-(4-fluoro-2-(hydroxymethyl)phenyl)-4-oxo-3,4-dihydroquinazolin-2-yl)-2-(3,5-difluorophenyl)ethyl)-2-((3bS,4aR)-3-(difluoromethyl)-5,5-difluoro-3b,4,4a,5-tetrahydro-1H-cyclopropa[3,4]cyclopenta[1,2-c]pyrazol-1-yl)acetamide] | > 1000 nM | 0.34 nM |
| Cn1nc(NS(C)(=O)=O)c2c(Cl)ccc(-n3c([C@H](Cc4cc(F)cc(F)c4)NC(=O)Cn4nc(C(F)F)c5c4C(F)(F)[C@@H]4C[C@H]54)nc4cc(-c5ccccc5Oc5ccccc5)ccc4c3=O)c21 (atropisomer, axis not shown; (aR)) [Example 107, N-((S)-1-(3-(4-chloro-1-methyl-3-(methylsulfonamido)-1H-indazol-7-yl)-4-oxo-7-(2-phenoxyphenyl)-3,4-dihydroquinazolin-2-yl)-2-(3,5-difluorophenyl)ethyl)-2-((3bS,4aR)-3-(difluoromethyl)-5,5-difluoro-3b,4,4a,5-tetrahydro-1H-cyclopropa[3,4]cyclopenta[1,2-c]pyrazol-1-yl)acetamide] | > 1000 nM | 10 nM |
| Cn1nc(NS(C)(=O)=O)c2c(Cl)ccc(-n3c([C@H](Cc4cc(F)cc(F)c4)NC(=O)Cn4nc(C(F)F)c5c4C(F)(F)[C@@H]4C[C@H]54)nc4cc(-c5cc(F)c(F)c(F)c5)ccc4c3=O)c21 (atropisomer, axis not shown; (aR)) [Example 108, N-((S)-1-(3-(4-chloro-1-methyl-3-(methylsulfonamido)-1H-indazol-7-yl)-4-oxo-7-(3,4,5-trifluorophenyl)-3,4-dihydroquinazolin-2-yl)-2-(3,5-difluorophenyl)ethyl)-2-((3bS,4aR)-3-(difluoromethyl)-5,5-difluoro-3b,4,4a,5-tetrahydro-1H-cyclopropa[3,4]cyclopenta[1,2-c]pyrazol-1-yl)acetamide] | > 1000 nM | 0.78 nM |
| Cn1nc(NS(C)(=O)=O)c2c(Cl)ccc(-n3c([C@H](Cc4cc(F)cc(F)c4)NC(=O)Cn4nc(C(F)F)c5c4C(F)(F)[C@@H]4C[C@H]54)nc4cc(-c5ccccc5S(C)(=O)=O)ccc4c3=O)c21 (atropisomer, axis not shown; (aR)) [Example 109, N-((S)-1-(3-(4-chloro-1-methyl-3-(methylsulfonamido)-1H-indazol-7-yl)-7-(2-(methylsulfonyl)phenyl)-4-oxo-3,4-dihydroquinazolin-2-yl)-2-(3,5-difluorophenyl)ethyl)-2-((3bS,4aR)-3-(difluoromethyl)-5,5-difluoro-3b,4,4a,5-tetrahydro-1H-cyclopropa[3,4]cyclopenta[1,2-c]pyrazol-1-yl)acetamide] | > 1000 nM | 0.11 nM |
| Cn1nc(NS(C)(=O)=O)c2c(Cl)ccc(-n3c([C@H](Cc4cc(F)cc(F)c4)NC(=O)Cn4nc(C(F)F)c5c4C(F)(F)[C@@H]4C[C@H]54)nc4cc(-c5ccccc5CO)ccc4c3=O)c21 (atropisomer, axis not shown; (aR)) [Example 116, N-((S)-1-(3-(4-chloro-1-methyl-3-(methylsulfonamido)-1H-indazol-7-yl)-7-(2-(hydroxymethyl)phenyl)-4-oxo-3,4-dihydroquinazolin-2-yl)-2-(3,5-difluorophenyl)ethyl)-2-((3bS,4aR)-3-(difluoromethyl)-5,5-difluoro-3b,4,4a,5-tetrahydro-1H-cyclopropa[3,4]cyclopenta[1,2-c]pyrazol-1-yl)acetamide] | > 500 nM | 0.14 nM |
| COc1ccnc(-c2ccc3c(=O)n(-c4ccc(Cl)c5c(NS(C)(=O)=O)nn(C)c45)c([C@H](Cc4cc(F)cc(F)c4)NC(=O)Cn4nc(C(F)F)c5c4C(F)(F)[C@@H]4C[C@H]54)nc3c2)n1 (atropisomer, axis not shown; (aR)) [Example 117, N-((S)-1-(3-(4-chloro-1-methyl-3-(methylsulfonamido)-1H-indazol-7-yl)-7-(4-methoxypyrimidin-2-yl)-4-oxo-3,4-dihydroquinazolin-2-yl)-2-(3,5-difluorophenyl)ethyl)-2-((3bS,4aR)-3-(difluoromethyl)-5,5-difluoro-3b,4,4a,5-tetrahydro-1H-cyclopropa[3,4]cyclopenta[1,2-c]pyrazol-1-yl)acetamide] | > 500 nM | 0.058 nM |
| Cn1nc(NS(C)(=O)=O)c2c(Cl)ccc(-n3c([C@H](Cc4cc(F)cc(F)c4)NC(=O)Cn4nc(C(F)F)c5c4C(F)(F)[C@@H]4C[C@H]54)nc4cc(-c5ccncc5)ccc4c3=O)c21 (atropisomer, axis not shown; (aR)) [Example 118, N-((S)-1-(3-(4-chloro-1-methyl-3-(methylsulfonamido)-1H-indazol-7-yl)-4-oxo-7-(pyridin-4-yl)-3,4-dihydroquinazolin-2-yl)-2-(3,5-difluorophenyl)ethyl)-2-((3bS,4aR)-3-(difluoromethyl)-5,5-difluoro-3b,4,4a,5-tetrahydro-1H-cyclopropa[3,4]cyclopenta[1,2-c]pyrazol-1-yl)acetamide] | > 500 nM | 0.16 nM |
